Our source for the IC50 values is US12275729B2 (Merck Sharp & Dohme LLC, priority 2017, dated 2025).

The assay deals with IDO1 (Homo sapiens, UniProt P14902). Kind of assay: IDO1 Cellular Assay in HeLa Cells Stimulated with IFNγ. It is filed as cell-based. Particulars: about 48 hours, read-out: Hela IC50.
Sequence of IDO1 (P14902 whole entry): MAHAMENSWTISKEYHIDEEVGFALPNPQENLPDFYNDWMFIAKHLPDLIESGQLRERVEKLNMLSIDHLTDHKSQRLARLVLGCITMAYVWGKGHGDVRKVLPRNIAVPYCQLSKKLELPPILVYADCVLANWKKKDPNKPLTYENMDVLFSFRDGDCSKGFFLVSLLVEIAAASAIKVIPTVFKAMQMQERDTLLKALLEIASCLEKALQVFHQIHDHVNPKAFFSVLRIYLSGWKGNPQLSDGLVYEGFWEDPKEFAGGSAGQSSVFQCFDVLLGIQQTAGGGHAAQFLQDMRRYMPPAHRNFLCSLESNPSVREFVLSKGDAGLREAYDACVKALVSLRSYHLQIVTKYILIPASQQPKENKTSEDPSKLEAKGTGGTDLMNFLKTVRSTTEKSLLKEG
What is called IC50 is the midpoint of a concentration-inhibition curve. With `O=C(c1cocn1)N1CCCc2cc(C3(C(=O)Nc4ccc(F)cn4)CCC3)ccc21` [Example 121, N-(5-fluoropyridin-2-yl)-1-[1-(1,3-oxazole-4-carbonyl)-1,2,3,4-tetrahydroquinolin-6-yl]cyclobutane-1-carboxamide], the IC50 came out at 4.1 nM.
Take `O=C(Nc1ccc(F)cn1)C1(c2ccc3c(c2)CCCN3S(=O)(=O)N2CCCC2)CCC1` [Example 122, N-(5-fluoropyridin-2-yl)-1-{1-[(pyrrolidin-1-yl)sulfonyl]-1,2,3,4-tetrahydroquinolin-6-yl}cyclobutane-1-carboxamide]: the IC50 was determined as 67.1 nM.
Then `CS(=O)(=O)N1CCCc2cc(C3(C(=O)Nc4ccc(F)cn4)CCC3)ccc21` [Example 123, N-(5-fluoropyridin-2-yl)-1-[1-(methylsulfonyl)-1,2,3,4-tetrahydroquinolin-6-yl]cyclobutane-1-carboxamide], with 34.1 nM.
The result for `O=C(Nc1ccc(F)cn1)C1(c2ccc3c(c2)CCCN3S(=O)(=O)C2CC2)CCC1` [Example 124, 1-[1-(cyclopropylsulfonyl)-1,2,3,4-tetrahydroquinolin-6-yl]-N-(5-fluoropyridin-2-yl)cyclobutane-1-carboxamide] reads 26.2 nM.
As to `C[C@@H](NC(=O)c1ccc(F)cc1)c1ccc2c(n1)CCCN2C(=O)[C@H]1CCOC1` [Example 131, 4-fluoro-N-((R)-1-(5-((S)-tetrahydrofuran-3-carbonyl)-5,6,7,8-tetrahydro-1,5-naphthyridin-2-yl)ethyl)benzamide], the IC50 turned out to be 356 nM.
With `CC(NC(=O)c1ccc(F)cc1)c1ccc2c(n1)CCCN2C(=O)[C@@H]1CCCCO1` (stereo partly drawn) [Example 132, 4-fluoro-N-(1-(5-((S)-tetrahydro-2H-pyran-2-carbonyl)-5,6,7,8-tetrahydro-1,5-naphthyridin-2-yl)ethyl)benzamide], the IC50 turned out to be 48.7 nM.
As to `C[C@@H](NC(=O)c1ccc(F)cc1)c1ccc2c(n1)CCCN2C(=O)C1CC1(F)F` (stereo partly drawn) [Example 133, N-{(1R)-1-[5-(2,2-difluorocyclopropane-1-carbonyl)-5,6,7,8-tetrahydro-1,5-naphthyridin-2-yl]ethyl}-4-fluorobenzamide], the IC50 worked out at 63.6 nM.
Take `CC(NC(=O)c1ccc(F)cc1)c1ccc2c(n1)CCCN2C(=O)C1(C)CCCCO1` (stereo not shown) [Example 136, 4-fluoro-N-{1-[5-(2-methyloxane-2-carbonyl)-5,6,7,8-tetrahydro-1,5-naphthyridin-2-yl]ethyl}benzamide]: the IC50 was 540 nM.
Then `CC(NC(=O)c1ccc(F)cc1)c1ccc2c(n1)CCCN2C(=O)C1COC1` (stereo not shown) [Example 142, 4-fluoro-N-{1-[5-(oxetane-3-carbonyl)-5,6,7,8-tetrahydro-1,5-naphthyridin-2-yl]ethyl}benzamide], with 1540 nM; and `CC(NC(=O)c1ccc(F)cc1)c1ccc2c(n1)CCCN2C(=O)c1cccc(C#N)c1` (stereo not shown) [Example 147, N-{1-[5-(3-cyanobenzene-1-carbonyl)-5,6,7,8-tetrahydro-1,5-naphthyridin-2-yl]ethyl}-4-fluorobenzamide], with 1.7 nM; and `CC(NC(=O)c1ccc(F)cc1)c1ccc2c(n1)CCCN2C(=O)c1cccc(Cl)c1Cl` (stereo not shown) [Example 148, N-{1-[5-(2,3-dichlorobenzene-1-carbonyl)-5,6,7,8-tetrahydro-1,5-naphthyridin-2-yl]ethyl}-4-fluorobenzamide], with 2.5 nM.
Then `COC(C(=O)Nc1ccc(F)cn1)c1ccc2c(c1)CCCN2C(=O)C1CC1` (stereo not shown) [Example 155, 2-(1-(cyclopropanecarbonyl)-1,2,3,4-tetrahydroquinolin-6-yl)-N-(5-fluoropyridin-2-yl)-2-methoxyacetamide], with 273 nM.
Turning to `CC(C(=O)Nc1ccc(F)cc1)c1ccc2c(n1)CCCN2C(=O)C1CCCCO1` (stereo not shown) [Example 158, N-(4-fluorophenyl)-2-[5-(oxane-2-carbonyl)-5,6,7,8-tetrahydro-1,5-naphthyridin-2-yl]propanamide], the IC50 was found to be 38.1 nM.
Regarding `CC(C(=O)Nc1ccc(F)cc1)c1ccc2c(n1)CCCN2C(=O)C1CCOCC1` (stereo not shown) [Example 166, N-(4-fluorophenyl)-2-[5-(oxane-4-carbonyl)-5,6,7,8-tetrahydro-1,5-naphthyridin-2-yl]propanamide], the IC50 was found to be 16.7 nM.
Then `CC(C(=O)Nc1ccc(F)cc1)c1ccc2c(n1)CCCN2C(=O)C1CCOCC1` (stereo not shown) [Example 167, N-(4-fluorophenyl)-2-[5-(oxane-4-carbonyl)-5,6,7,8-tetrahydro-1,5-naphthyridin-2-yl]propanamide], with 5.1 nM; and `O=C(NC1(c2ccc3c(n2)CCCN3C(=O)C2CC2)CC1)c1ccc(F)cc1` [Example 168, N-{1-[5-(cyclopropanecarbonyl)-5,6,7,8-tetrahydro-1,5-naphthyridin-2-yl]cyclopropyl}-4-fluorobenzamide], with 25.7 nM; and `O=C(C1CC1)N1CCCc2nc(C3(C(=O)Nc4ccc(F)cn4)CCC3)ccc21` [Example 169, 1-[5-(cyclopropanecarbonyl)-5,6,7,8-tetrahydro-1,5-naphthyridin-2-yl]-N-(5-fluoropyridin-2-yl)cyclobutane-1-carboxamide], with 55.7 nM.
`O=C(NC1(c2ccc3c(n2)CCCN3C(=O)C2CCCCO2)CC1)c1ccc(F)cc1` (stereo not shown) [Example 170, 4-fluoro-N-{1-[5-(oxane-2-carbonyl)-5,6,7,8-tetrahydro-1,5-naphthyridin-2-yl]cyclopropyl}benzamide]: the IC50 came to 2.4 nM.
Then `O=C(NC1(c2ccc3c(n2)CCCN3C(=O)c2cccc(Cl)c2)CC1)c1ccc(F)cc1` [Example 171, N-{1-[5-(3-chlorobenzene-1-carbonyl)-5,6,7,8-tetrahydro-1,5-naphthyridin-2-yl]cyclopropyl}-4-fluorobenzamide], with 2.3 nM; and `O=C(NC1(c2ccc3c(n2)CCCN3C(=O)C2CCOCC2)CC1)c1ccc(F)cc1` [Example 172, 4-fluoro-N-{1-[5-(oxane-4-carbonyl)-5,6,7,8-tetrahydro-1,5-naphthyridin-2-yl]cyclopropyl}benzamide], with 16.1 nM.
The result for `Cn1cc(C(=O)N2CCCc3nc(C4(NC(=O)c5ccc(F)cc5)CC4)ccc32)cn1` [Example 173, 4-fluoro-N-{1-[5-(1-methyl-1H-pyrazole-4-carbonyl)-5,6,7,8-tetrahydro-1,5-naphthyridin-2-yl]cyclopropyl}benzamide] reads 39.9 nM; that for `CC(=O)N1CCCc2nc(C3(NC(=O)c4ccc(F)cc4)CC3)ccc21` [Example 174, N-[1-(5-acetyl-5,6,7,8-tetrahydro-1,5-naphthyridin-2-yl)cyclopropyl]-4-fluorobenzamide], 266 nM.
Regarding `O=C(NC1(c2ccc3c(n2)CCCN3C(=O)[C@H]2CCCO2)CC1)c1ccc(F)cc1` [Example 176, 4-fluoro-N-(1-{5-[(2R)-oxolane-2-carbonyl]-5,6,7,8-tetrahydro-1,5-naphthyridin-2-yl}cyclopropyl)benzamide], the IC50 came to 9.7 nM.
As to `O=C(NC1(c2ccc3c(n2)CCCN3C(=O)C2CCCCO2)CC1)c1ccc(F)cc1` (stereo not shown) [Example 177, 4-fluoro-N-{1-[5-(oxane-2-carbonyl)-5,6,7,8-tetrahydro-1,5-naphthyridin-2-yl]cyclopropyl}benzamide], the IC50 amounted to 7.5 nM.
Then `O=C([C@H]1CCCO1)N1CCCc2nc(C3(C(=O)Nc4ccc(F)cc4)CCC3)ccc21` [Example 180, N-(4-fluorophenyl)-1-{5-[(2R)-oxolane-2-carbonyl]-5,6,7,8-tetrahydro-1,5-naphthyiridin-2-yl}cyclobutane-1-carboxamide], with 1.9 nM; and `O=C(C1CCOCC1)N1CCCc2nc(C3(C(=O)Nc4ccc(F)cc4)CCC3)ccc21` [Example 181, N-(4-fluorophenyl)-1-[5-(oxane-4-carbonyl)-5,6,7,8-tetrahydro-1,5-naphthyridin-2-yl]cyclobutane-1-carboxamide], with 3.1 nM.
Regarding `O=C(C1CCO1)N1CCCc2nc(C3(C(=O)Nc4ccc(F)cc4)CCC3)ccc21` (stereo not shown) [Example 182, N-(4-fluorophenyl)-1-[5-(oxetane-2-carbonyl)-5,6,7,8-tetrahydro-1,5-naphthyridin-2-yl]cyclobutane-1-carboxamide], the IC50 stood at 5.2 nM.
`O=C(NC1(c2ccc3c(n2)CCCN3C(=O)C2CC2)CCC1)c1ccc(Cl)cc1` [Example 183, 4-chloro-N-{1-[5-(cyclopropanecarbonyl)-5,6,7,8-tetrahydro-1,5-naphthyridin-2-yl]cyclobutyl}benzamide]: the IC50 came out at 5.2 nM.
Take `CC(C)(C(=O)Nc1ccc(F)cc1)c1ccc2c(n1)CCCN2C(=O)C1CC1` [Example 184, 2-[5-(cyclopropanecarbonyl)-5,6,7,8-tetrahydro-1,5-naphthyridin-2-yl]-N-(4-fluorophenyl)-2-methylpropanamide]: the IC50 is 10.8 nM.
Then `CC(C)(C(=O)Nc1ccc(F)cc1)c1ccc2c(n1)CCCN2C(=O)C1CCOCC1` [Example 186, N-(4-fluorophenyl)-2-methyl-2-[5-(oxane-4-carbonyl)-5,6,7,8-tetrahydro-1,5-naphthyridin-2-yl]propanamide], with 5.9 nM; and `CC(C)(C(=O)Nc1ccc(F)cc1)c1ccc2c(n1)CCCN2C(=O)c1cccc(Cl)c1` [Example 188, 2-[5-(3-chlorobenzene-1-carbonyl)-5,6,7,8-tetrahydro-1,5-naphthyridin-2-yl]-N-(4-fluorophenyl)-2-methylpropanamide], with 5.7 nM; and `CC(NC(=O)c1ccc(F)cc1)c1ccc2c(n1)C(=O)CCN2C(=O)C1CC1` (stereo not shown) [Example 192, N-(1-(5-(cyclopropanecarbonyl)-8-oxo-5,6,7,8-tetrahydro-1,5-naphthyridin-2-yl)ethyl)-4-fluorobenzamide], with 825 nM.
The result for `CC(NC(=O)c1ccc(F)cc1)c1ccc2c(n1)C(F)(F)CCN2C(=O)C1CC1` (stereo not shown) [Example 193, N-(1-(5-(cyclopropanecarbonyl)-8,8-difluoro-5,6,7,8-tetrahydro-1,5-naphthyridin-2-yl)ethyl)-4-fluorobenzamide] reads 5290 nM.
The result for `CC(NC(=O)c1ccc(F)cc1)c1ccc2c(n1)C(O)CCN2C(=O)C1CC1` (stereo not shown) [Example 196, N-(1-(5-(cyclopropanecarbonyl)-8-hydroxy-5,6,7,8-tetrahydro-1,5-naphthyridin-2-yl)ethyl)-4-fluorobenzamide] reads 342 nM.
